The source made the active and inactive calls.
Assays:
[1] = HeLa cell cytotoxicity, dose response, cytotoxicity control for MgcRacGAP inhibitor project (AID 624300); assay type: functional
[2] = target: T1, Rac GTPase-activating protein 1 (Homo sapiens, UniProt Q9H0H5); experiment: MgcRacGAP GTPase-activating activity inhibitors, confirmation, biochemical, ADP Hunter fluorescence, primary and confirmatory (AID 624330); assay type: functional
T1 sequence (Q9H0H5 whole entry): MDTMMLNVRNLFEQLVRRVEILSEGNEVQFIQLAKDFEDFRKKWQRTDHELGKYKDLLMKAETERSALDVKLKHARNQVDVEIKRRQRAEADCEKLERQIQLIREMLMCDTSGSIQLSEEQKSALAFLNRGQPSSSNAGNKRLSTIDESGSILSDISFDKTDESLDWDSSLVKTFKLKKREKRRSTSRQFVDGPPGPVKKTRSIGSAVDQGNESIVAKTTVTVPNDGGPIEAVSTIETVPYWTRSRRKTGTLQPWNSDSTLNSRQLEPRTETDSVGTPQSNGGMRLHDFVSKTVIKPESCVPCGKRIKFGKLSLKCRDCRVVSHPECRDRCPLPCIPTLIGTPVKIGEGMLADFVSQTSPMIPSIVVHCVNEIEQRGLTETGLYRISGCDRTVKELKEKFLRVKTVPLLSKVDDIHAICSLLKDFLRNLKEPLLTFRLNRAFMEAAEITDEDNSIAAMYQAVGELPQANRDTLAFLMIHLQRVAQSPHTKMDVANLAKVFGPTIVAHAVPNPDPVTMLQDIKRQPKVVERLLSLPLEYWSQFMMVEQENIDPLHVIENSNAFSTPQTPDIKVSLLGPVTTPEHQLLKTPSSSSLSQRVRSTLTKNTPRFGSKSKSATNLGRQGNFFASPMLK

[3] = inhibitors of Vif binding to APOBEC3G peptide, primary screen, biochemical, TR-FRET, GST-Vif 1-94, biotin-A3G peptide, dose response retest (AID 1117319); assay type: functional;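 further: TR-FRET signal of purified GST-Vif binding a biotinylated A3G peptide; inhibitors lower the FRET signal by blocking Vif and A3G binding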
Vero = Vero cell cytotoxicity, cytotoxicity control for flavivirus capping enzyme inhibitors (AID 588742); assay type: functional; conditions: Chlorocebus sabaeus
[4] = THP-1 cell cytotoxicity, dose response, cytotoxicity control for Vif-APOBEC3G degradation inhibitor project, THP-1 cells (AID 1117359); assay type: functional; conditions: Human immunodeficiency virus 1, THP-1
Cytochrome P450 1A2 = target: T2, Cytochrome P450 1A2 (Homo sapiens, UniProt P05177);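 further: PubChem cytochrome P450 panel assay, CYP1A2 panel member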
T2 sequence (P05177 whole entry): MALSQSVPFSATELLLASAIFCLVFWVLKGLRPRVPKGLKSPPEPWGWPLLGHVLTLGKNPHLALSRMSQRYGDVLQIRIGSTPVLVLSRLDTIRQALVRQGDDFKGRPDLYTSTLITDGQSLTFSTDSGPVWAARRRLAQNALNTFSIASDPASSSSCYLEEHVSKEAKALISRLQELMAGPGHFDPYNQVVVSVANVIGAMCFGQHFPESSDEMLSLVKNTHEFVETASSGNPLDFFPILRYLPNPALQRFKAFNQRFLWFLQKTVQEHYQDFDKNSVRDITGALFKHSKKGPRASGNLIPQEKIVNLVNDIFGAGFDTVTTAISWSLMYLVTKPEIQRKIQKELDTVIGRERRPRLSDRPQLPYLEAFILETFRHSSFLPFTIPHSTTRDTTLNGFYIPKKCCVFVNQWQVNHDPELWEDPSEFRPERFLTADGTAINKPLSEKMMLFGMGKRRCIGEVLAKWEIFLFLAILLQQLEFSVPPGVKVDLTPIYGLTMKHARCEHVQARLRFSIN

Cytochrome P450 3A4 = Cytochrome P450 3A4 (Homo sapiens, UniProt P08684);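 further: CYP3A4 tested as one member of a cytochrome P450 panel screen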
Chain of Cytochrome P450 3A4 (P08684 whole entry): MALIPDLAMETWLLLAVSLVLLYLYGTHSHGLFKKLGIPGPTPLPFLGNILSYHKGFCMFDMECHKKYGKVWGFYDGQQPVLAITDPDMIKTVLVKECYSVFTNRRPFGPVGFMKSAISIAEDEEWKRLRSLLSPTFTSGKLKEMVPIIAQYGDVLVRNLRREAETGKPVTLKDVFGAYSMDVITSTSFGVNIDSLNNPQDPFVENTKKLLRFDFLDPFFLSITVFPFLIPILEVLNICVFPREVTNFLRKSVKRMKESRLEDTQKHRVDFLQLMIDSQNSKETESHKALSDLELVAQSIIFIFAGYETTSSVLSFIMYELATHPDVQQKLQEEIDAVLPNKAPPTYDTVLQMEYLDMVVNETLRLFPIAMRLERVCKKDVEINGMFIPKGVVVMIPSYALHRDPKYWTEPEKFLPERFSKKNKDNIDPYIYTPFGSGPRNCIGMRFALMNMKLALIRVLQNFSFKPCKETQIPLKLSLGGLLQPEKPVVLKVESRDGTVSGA

Cytochrome P450 2C9 = Cytochrome P450 2C9 (Homo sapiens, UniProt P11712)
Chain of Cytochrome P450 2C9 (P11712 whole entry): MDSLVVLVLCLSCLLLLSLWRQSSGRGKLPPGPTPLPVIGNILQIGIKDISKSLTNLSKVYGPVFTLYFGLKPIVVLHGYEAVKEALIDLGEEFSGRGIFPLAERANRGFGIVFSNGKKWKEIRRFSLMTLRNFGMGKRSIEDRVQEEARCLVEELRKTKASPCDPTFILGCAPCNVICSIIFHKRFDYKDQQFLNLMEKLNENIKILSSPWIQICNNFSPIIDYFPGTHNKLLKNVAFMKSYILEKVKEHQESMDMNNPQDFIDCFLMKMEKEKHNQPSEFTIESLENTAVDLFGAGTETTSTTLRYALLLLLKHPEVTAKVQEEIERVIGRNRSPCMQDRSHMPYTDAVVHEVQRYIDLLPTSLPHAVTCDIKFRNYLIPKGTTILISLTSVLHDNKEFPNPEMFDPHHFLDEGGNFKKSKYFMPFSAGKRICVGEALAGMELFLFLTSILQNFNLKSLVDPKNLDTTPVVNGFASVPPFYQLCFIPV

[5] = NIH-3T3 fibroblast cytotoxicity, dose response, cytotoxicity control, cell-based, fluorescence, Alamar Blue, secondary assay (AID 2327); assay type: functional;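 further: NIH-3T3 mouse fibroblasts cultured with fluconazole at 8 µg/mL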
[6] = C. albicans growth with fluconazole, confirmation, fluorescence, retest (AID 2467); assay type: functional, cell-based
Albumin = Albumin (Bos taurus, UniProt P02769); experiment: Counterscreen for inhibitors of T-cell receptor (TCR)-CD3 interaction: Fluorescence-based biochemical high throughput dose response assay to identify inhibitors of T-cell receptor (TCR)-CD3 interaction using a TAMRA-labeled BSA probe.; assay type: functional
Chain of Albumin (P02769 whole entry): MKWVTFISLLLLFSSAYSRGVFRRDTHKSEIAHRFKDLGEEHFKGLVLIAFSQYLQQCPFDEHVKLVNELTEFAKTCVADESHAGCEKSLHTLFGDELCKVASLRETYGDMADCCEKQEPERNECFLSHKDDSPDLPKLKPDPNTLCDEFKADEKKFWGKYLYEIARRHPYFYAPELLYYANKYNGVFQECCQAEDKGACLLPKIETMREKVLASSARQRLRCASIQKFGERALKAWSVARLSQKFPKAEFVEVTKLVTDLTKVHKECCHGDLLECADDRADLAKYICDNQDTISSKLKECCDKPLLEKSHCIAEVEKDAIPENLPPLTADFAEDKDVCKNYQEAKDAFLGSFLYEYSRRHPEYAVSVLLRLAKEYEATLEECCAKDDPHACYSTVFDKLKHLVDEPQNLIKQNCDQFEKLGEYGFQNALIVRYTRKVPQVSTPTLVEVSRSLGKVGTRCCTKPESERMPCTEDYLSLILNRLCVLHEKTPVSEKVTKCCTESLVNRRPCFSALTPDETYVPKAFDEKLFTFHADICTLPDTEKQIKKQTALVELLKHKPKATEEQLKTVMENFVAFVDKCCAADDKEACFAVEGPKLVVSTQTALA

Caspase-3 = target: T3, Caspase-3 (Homo sapiens, UniProt P42574); assay type: functional;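 further: Dose-response selectivity test against caspase-3 for candidate inhibitors of sentrin-specific proteases (SENPs)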
T3 sequence (P42574 whole entry): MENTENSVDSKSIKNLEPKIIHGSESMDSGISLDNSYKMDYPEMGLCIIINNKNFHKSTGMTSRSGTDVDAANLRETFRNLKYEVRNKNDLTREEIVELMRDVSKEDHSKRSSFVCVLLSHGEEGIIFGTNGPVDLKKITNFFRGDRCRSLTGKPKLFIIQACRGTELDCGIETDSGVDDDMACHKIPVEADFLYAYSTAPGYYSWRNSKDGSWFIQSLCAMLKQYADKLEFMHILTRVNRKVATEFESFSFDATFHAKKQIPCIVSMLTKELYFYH

[7] = target: T4, Sentrin-specific protease 7 (Homo sapiens, UniProt Q9BQF6); assay type: functional;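 further: Luminescence-based dose-response confirmation of ultra-high-throughput screening hits, measuring inhibition of SENP7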
T4 sequence (Q9BQF6 whole entry): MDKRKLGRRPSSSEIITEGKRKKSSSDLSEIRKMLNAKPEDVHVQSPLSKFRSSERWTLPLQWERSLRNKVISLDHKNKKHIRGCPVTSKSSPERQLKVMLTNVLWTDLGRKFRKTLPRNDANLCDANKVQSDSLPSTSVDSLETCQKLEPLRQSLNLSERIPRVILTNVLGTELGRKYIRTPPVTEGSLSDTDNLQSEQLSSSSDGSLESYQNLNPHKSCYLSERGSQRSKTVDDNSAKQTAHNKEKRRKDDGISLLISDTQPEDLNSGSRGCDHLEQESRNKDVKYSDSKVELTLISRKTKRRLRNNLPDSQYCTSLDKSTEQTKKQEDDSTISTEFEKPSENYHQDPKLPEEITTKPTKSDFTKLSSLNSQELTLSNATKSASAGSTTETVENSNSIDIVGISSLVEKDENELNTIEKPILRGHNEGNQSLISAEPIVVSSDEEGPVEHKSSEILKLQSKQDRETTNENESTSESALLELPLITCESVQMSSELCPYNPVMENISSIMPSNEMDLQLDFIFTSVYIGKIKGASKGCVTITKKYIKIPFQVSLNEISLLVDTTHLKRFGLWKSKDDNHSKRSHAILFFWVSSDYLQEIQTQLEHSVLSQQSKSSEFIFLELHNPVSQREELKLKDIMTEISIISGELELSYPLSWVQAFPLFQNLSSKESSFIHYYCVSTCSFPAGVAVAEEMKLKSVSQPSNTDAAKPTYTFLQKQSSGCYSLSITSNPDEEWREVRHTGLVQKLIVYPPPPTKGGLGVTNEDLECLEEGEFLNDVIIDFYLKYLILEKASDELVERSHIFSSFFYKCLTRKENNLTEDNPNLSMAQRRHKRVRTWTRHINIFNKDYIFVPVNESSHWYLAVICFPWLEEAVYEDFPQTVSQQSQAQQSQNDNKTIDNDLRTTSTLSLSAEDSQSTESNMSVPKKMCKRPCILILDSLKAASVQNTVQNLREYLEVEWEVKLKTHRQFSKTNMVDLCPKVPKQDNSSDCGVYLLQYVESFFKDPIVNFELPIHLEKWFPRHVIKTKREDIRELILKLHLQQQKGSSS

[8] = target: T5, Sentrin-specific protease 6 (Homo sapiens, UniProt Q9GZR1); assay type: functional;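 further: Luminescence-based dose-response confirmatory assay of SENP6 inhibition, following up an ultra-high-throughput screen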
T5 sequence (Q9GZR1 whole entry): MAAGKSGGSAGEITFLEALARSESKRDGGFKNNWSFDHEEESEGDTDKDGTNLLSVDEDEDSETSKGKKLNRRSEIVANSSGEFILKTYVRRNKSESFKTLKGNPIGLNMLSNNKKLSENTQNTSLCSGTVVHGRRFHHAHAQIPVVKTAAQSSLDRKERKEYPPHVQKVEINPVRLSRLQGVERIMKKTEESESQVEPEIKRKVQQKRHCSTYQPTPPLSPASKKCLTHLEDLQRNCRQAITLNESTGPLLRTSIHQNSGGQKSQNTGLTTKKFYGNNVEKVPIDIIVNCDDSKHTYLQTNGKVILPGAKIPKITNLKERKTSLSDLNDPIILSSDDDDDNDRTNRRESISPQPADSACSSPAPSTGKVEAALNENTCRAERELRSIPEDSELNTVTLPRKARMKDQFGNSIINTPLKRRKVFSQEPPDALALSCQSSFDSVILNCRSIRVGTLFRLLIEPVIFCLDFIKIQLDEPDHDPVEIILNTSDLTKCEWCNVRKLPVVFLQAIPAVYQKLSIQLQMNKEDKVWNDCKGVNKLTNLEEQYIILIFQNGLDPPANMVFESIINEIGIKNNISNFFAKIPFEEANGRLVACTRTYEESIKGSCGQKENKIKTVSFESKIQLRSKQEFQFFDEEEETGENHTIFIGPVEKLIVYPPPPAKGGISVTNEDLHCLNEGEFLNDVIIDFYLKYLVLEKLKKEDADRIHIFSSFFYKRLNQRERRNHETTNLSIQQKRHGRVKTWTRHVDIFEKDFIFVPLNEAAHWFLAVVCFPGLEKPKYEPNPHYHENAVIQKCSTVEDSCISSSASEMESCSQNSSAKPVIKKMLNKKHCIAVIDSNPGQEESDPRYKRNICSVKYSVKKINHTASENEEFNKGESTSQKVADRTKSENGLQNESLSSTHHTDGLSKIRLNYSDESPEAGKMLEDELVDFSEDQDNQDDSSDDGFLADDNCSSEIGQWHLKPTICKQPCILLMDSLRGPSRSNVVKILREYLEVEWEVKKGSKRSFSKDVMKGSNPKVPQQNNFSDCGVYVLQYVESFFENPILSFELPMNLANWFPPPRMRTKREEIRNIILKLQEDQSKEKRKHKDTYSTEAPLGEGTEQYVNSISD

[9] = target: T6, Sentrin-specific protease 8 (Homo sapiens, UniProt Q96LD8); assay type: functional;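 further: luminescence read-out of SENP8 inhibition, dose-response confirmation following an ultra-high-throughput screen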
T6 sequence (Q96LD8 whole entry): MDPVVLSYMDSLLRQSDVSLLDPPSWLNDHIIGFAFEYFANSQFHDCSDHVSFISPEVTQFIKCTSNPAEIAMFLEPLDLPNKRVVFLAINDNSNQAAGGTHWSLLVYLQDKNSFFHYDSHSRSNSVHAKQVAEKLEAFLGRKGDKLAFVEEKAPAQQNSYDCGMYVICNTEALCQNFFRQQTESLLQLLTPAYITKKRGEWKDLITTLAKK

[10] = A549 cell cytotoxicity, dose response, cytotoxicity control, plate reader, cherry-pick, antagonist series (AID 743412); assay type: functional, cell-based
[11] = HepG2 cell cytotoxicity, dose response, cytotoxicity control, plate reader, cherry-pick, antagonist series (AID 743416); assay type: functional, cell-based
[12] = LGR2 antagonists, dose response, cell-based, HEK293, CRE-luciferase reporter, cherry pick, set 2 (AID 743343); assay type: functional;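 further: transfected cells were stimulated with diluted bursicon conditioned medium after compound addition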
[13] = MC4R antagonists, dose response, counter-screen for LGR2 antagonist project, cell-based, plate reader, cherry pick (AID 743444); assay type: functional;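 further: transfected HEK 293 cells stimulated with alpha-MSH peptide; potency of inhibitors of the alpha-MSH evoked signal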
[14] = HEK293 cell cytotoxicity, dose response, cytotoxicity control, plate reader, cherry-picked samples (AID 743446); assay type: functional, cell-based

For `Cc1cc(C)n(CC(O)CN2c3ccccc3Sc3ccccc32)n1` (centres undefined), the CC50 [1] was 100 µM (active), the IC50 [2] was 82.6 µM (active) and the IC50 [3] was > 100 µM (active).
For `CCOc1cccc(CNc2ccc(O)cc2)c1OCc1ccccc1Cl`, the CC50 (Vero) was > 40 µM (active) and the CC50 [4] was 23 µM (active).
With `Cc1ccc(NC(=O)CSc2nnc(C3CCCCC3)n2N)cc1F` the IC50 [3] was > 100 µM (active).
With `CCN(CC)C(=O)CCNS(=O)(=O)c1ccc(C)cc1` the IC50 [3] was > 100 µM (active), the AC50 (Cytochrome P450 1A2) was 28.2 µM (inconclusive) and the AC50 (Cytochrome P450 3A4) was 25.1 µM (inconclusive). The AC50 (Cytochrome P450 2C9) was “inconclusive”.
For `O=C(NNC(=O)c1ccccc1O)c1ccc(-c2ccc([N+](=O)[O-])cc2)o1`, the EC50 [5] was > 150 µM (inactive), the EC50 [6] was > 38 µM (not active) and the IC50 (Albumin) was > 94.1 µM (inactive). For the same compound, the CC50 [4] was 15.3 µM (active).
In the case of `O=C(OC(C(=O)NCc1cccs1)c1ccccc1Cl)c1ccco1` (centres undefined), the CC50 [4] was > 40 µM (active).
For `COC(=O)Cc1cc(O)n2nc(C)cc2n1`, the IC50 [3] was > 100 µM (active).
In the case of `Cc1ccc(-c2csc(NC(=O)c3ccc(-c4ccccc4)cc3)n2)o1`, the IC50 [3] was > 100 µM (active).
In the case of `COc1ccccc1C(=O)C1CCCN(Cc2ccc3c(c2)OCCO3)C1` (centres undefined), the CC50 [4] was > 40 µM (active).
In the case of `O=C(O)CN1C(=O)CSc2ccccc21`, the IC50 [3] was > 100 µM (active).
With `C/C(O)=C1/C(=O)N(C)C(=S)N(c2ccccc2)C1=O` the IC50 [3] was > 100 µM (active).
In the case of `Cn1c(-c2ccccc2)cc2onc(-c3ccccc3)c2c1=O`, the IC50 (Caspase-3) was 2.4 µM (active), the IC50 [7] was 1.14 µM (active) and the IC50 [8] was 1.51 µM (active). The IC50 [9] was 3.11 µM (active), the AC50 [10] was > 52 µM (inactive) and the AC50 [11] was 34.4 µM (active). For the same compound, the AC50 [12] was 3.08 µM (active), the AC50 [13] was 3.66 µM (active) and the AC50 [14] was 51.9 µM (active).
